From US8183263B2 (priority 2007, dated 2012)

The molecules below were run on HCV replicon (assay: HCV replicon replication assay (NPT level by captured ELISA)). Conditions: Hepatitis C virus, 72 h; Huh-7 HCV replicon-containing cells, three days incubation; read-out: Activity (inhibition of HCV replicon replication).
Type: cell-based
Outline: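 Huh-7 cells carrying HCV subgenomic replicon (NS3–NS5B, neo reporter) treated 3 days at 37 °C with 6 concentrations from 10 to 0.03 micromolar in G418-free medium, equal DMSO across wells. Replication measured on day four as NPTII level by in-cell captured ELISA on fixed cells; interferon alpha as positive control.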

How did the EC50 turn out when `CCCCCCCCc1c(F)cc(Nc2nc(-c3cccnc3)c(F)s2)cc1F` [Cmp 138, N-(3,5-difluoro-4-octylphenyl)-5-fluoro-4-(pyridin-3-yl)thiazol-2-amine] was run?
Its EC50 is under 1000 nM.

How did the EC50 turn out when `Fc1sc(Nc2ccc(OCCOc3ccccc3)c(C(F)(F)F)c2)nc1-c1cccnc1` [Cmp 139, 5-fluoro-N-(4-(2-phenoxyethoxy)-3-(trifluoromethyl)phenyl)-4-(pyridin-3-yl)thiazol-2-amine] was run?
Its EC50 is under 1000 nM.

With `CCCCCCCCOc1ccc(Nc2nc(-c3cccnc3)cs2)cc1C(C)=O` [Cmp 140, 1-(2-(octyloxy)-5-(4-(pyridin-3-yl)thiazol-2-ylamino)phenyl)ethanone] as the molecule, how does the EC50 read?
The EC50 was under 1000 nM.

For `CCCCCCCCOc1ccc(Nc2nc(-c3cccnc3)c(F)s2)cc1` [Cmp 141, 5-fluoro-N-(4-(octyloxy)phenyl)-4-(pyridin-3-yl)thiazol-2-amine], which EC50 is on record?
Its EC50 is under 1000 nM.

Which EC50 does the source give for `CCCCCCCCOc1ccc(Nc2nc(-c3ccc[n+](C)c3)cs2)cc1C(F)(F)F` [Cmp 142, 1-methyl-3-(2-(4-(octyloxy)-3-(trifluoromethyl)phenylamino)thiazol-4-yl)pyridinium] here?
Its EC50 is 1000 to 10000 nM.

For `CCCCCCCCOc1ccc(Nc2ncc(Br)s2)cc1C(F)(F)F` [Cmp 143, 5-bromo-N-(4-(octyloxy)-3-(trifluoromethyl)phenyl)thiazol-2-amine], which EC50 is on record?
The EC50 was under 1000 nM.

How did the EC50 turn out when `CCCCCCCCOc1ccc(Nc2ncc(Oc3cccnc3)s2)cc1C(F)(F)F` [Cmp 144, N-(4-(octyloxy)-3-(trifluoromethyl)phenyl)-5-(pyridin-3-yloxy)thiazol-2-amine] was run?
The EC50 was under 1000 nM.

For `FC(F)(F)c1cc(Nc2nc(-c3cccnc3)cs2)ccc1OCCCCc1cnc2ccccc2c1` [Cmp 145, 4-(pyridin-3-yl)-N-(4-(4-(quinolin-3-yl)butoxy)-3-(trifluoromethyl)phenyl)thiazol-2-amine], which EC50 is on record?
The EC50 was under 1000 nM.

Which EC50 does the source give for `CCCCCCCCOc1ccc(Nc2ncc(Sc3ccncc3)s2)cc1C(F)(F)F` [Cmp 146, N-(4-(octyloxy)-3-(trifluoromethyl)phenyl)-5-(pyridin-4-ylthio)thiazol-2-amine] here?
The EC50 was 1000 to 10000 nM.

`O=c1cc(-c2ccccc2)oc2ccc(Nc3nc(-c4cccnc4)cs3)cc12` [Cmp 148, 2-phenyl-6-(4-(pyridin-3-yl)thiazol-2-ylamino)-4H-chromen-4-one] was tested. Which EC50 did it give?
Its EC50 is over 10000 nM.

With `CCCCCCCCOc1ccc(Nc2nc(-c3cccnc3)c(F)s2)cc1C(C)=O` [Cmp 149, 1-(5-(5-fluoro-4-(pyridin-3-yl)thiazol-2-ylamino)-2-(octyloxy)phenyl)ethanone] as the molecule, how does the EC50 read?
The EC50 was under 1000 nM.

For `CC(C)(C)c1cc2cc(Nc3nc(-c4cccnc4)cs3)ccc2o1` [Cmp 150, N-(2-tert-butylbenzofuran-5-yl)-4-(pyridin-3-yl)thiazol-2-amine], which EC50 is on record?
Its EC50 is under 1000 nM.

How did the EC50 turn out when `CCCCCCCCOc1ccc(Nc2nc(-c3cccnc3)cs2)cc1S(C)(=O)=O` [Cmp 151, N-(3-(methylsulfonyl)-4-(octyloxy)phenyl)-4-(pyridin-3-yl)thiazol-2-amine] was run?
Its EC50 is under 1000 nM.

With `CCCCCCCCOc1ccc(Nc2nc(-c3cncc(O)c3)cs2)cc1C(F)(F)F` [Cmp 152, 5-(2-(4-(octyloxy)-3-(trifluoromethyl)phenylamino)thiazol-4-yl)pyridin-3-ol] as the molecule, how does the EC50 read?
Its EC50 is under 1000 nM.

With `c1ccc(CCc2cc3cc(Nc4nc(-c5cccnc5)cs4)ccc3o2)cc1` [Cmp 153, N-(2-phenethylbenzofuran-5-yl)-4-(pyridin-3-yl)thiazol-2-amine] as the molecule, how does the EC50 read?
Its EC50 is under 1000 nM.

For `CCCCCCCCOc1ccc(Nc2nc(-c3cccnc3)cs2)cc1C(=O)OC` [Cmp 154, methyl 2-(octyloxy)-5-(4-(pyridin-3-yl)thiazol-2-ylamino)benzoate], which EC50 is on record?
Its EC50 is under 1000 nM.

Which EC50 does the source give for `CCCCCCCCOc1ccc(Nc2nc(-c3cccnc3)cs2)cc1C(=O)O` [Cmp 155, 2-(octyloxy)-5-(4-(pyridin-3-yl)thiazol-2-ylamino)benzoic acid] here?
The EC50 was over 10000 nM.

For `CCCCCCCCOc1ccc(Nc2nc(-c3cccnc3)cs2)cc1C(N)=O` [Cmp 156, 2-(octyloxy)-5-(4-(pyridin-3-yl)thiazol-2-ylamino)benzamide], which EC50 is on record?
Its EC50 is under 1000 nM.

With `CCCCCCCCOc1ccc(Nc2nc(-c3cccnc3)c(CN(C)C)s2)cc1C(F)(F)F` [Cmp 157, 5-((dimethylamino)methyl)-N-(4-(octyloxy)-3-(trifluoromethyl)phenyl)-4-(pyridin-3-yl)thiazol-2-amine] as the molecule, how does the EC50 read?
The EC50 was 1000 to 10000 nM.

Which EC50 does the source give for `CCCCCCCCN(C)c1ccc(Nc2nc(-c3cccnc3)c(Cl)s2)cc1C(F)(F)F` [Cmp 158, N^4-(5-chloro-4-(pyridin-3-yl)thiazol-2-yl)-N^1-methyl-N^1-octyl-2-(trifluoromethyl)benzene-1,4-diamine] here?
The EC50 was under 1000 nM.

With `CCCCCCCCOc1ccc(N(C)c2nc(-c3cccnc3)c(F)s2)cc1C(F)(F)F` [Cmp 159, 5-fluoro-N-methyl-N-(4-(octyloxy)-3-(trifluoromethyl)phenyl)-4-(pyridin-3-yl)thiazol-2-amine] as the molecule, how does the EC50 read?
Its EC50 is under 1000 nM.

Which EC50 does the source give for `CCCCCCCCc1ccc(N(C)c2nc(-c3cccnc3)c(F)s2)cc1C(F)(F)F` [Cmp 160, 5-fluoro-N-methyl-N-(4-octyl-3-(trifluoromethyl)phenyl)-4-(pyridin-3-yl)thiazol-2-amine] here?
The EC50 was 1000 to 10000 nM.

`CCCCCCCCc1ccc(Nc2nc(-c3cnccn3)cs2)cc1C(F)(F)F` [Cmp 161, N-(4-octyl-3-(trifluoromethyl)phenyl)-4-(pyrazin-2-yl)thiazol-2-amine] was tested. Which EC50 did it give?
The EC50 was under 1000 nM.

Which EC50 does the source give for `CCCCCCCCOc1ccc(Nc2nc(-c3cnccn3)c(Cl)s2)cc1C(F)(F)F` [Cmp 162, 5-chloro-N-(4-(octyloxy)-3-(trifluoromethyl)phenyl)-4-(pyrazin-2-yl)thiazol-2-amine] here?
The EC50 was under 1000 nM.

How did the EC50 turn out when `Fc1ccc(C#CCCOc2ccc(Nc3nc(-c4cccnc4)c(F)s3)cc2C(F)(F)F)cc1` [Cmp 163, 5-fluoro-N-(4-(4-(4-fluorophenyl)but-3-ynyloxy)-3-(trifluoromethyl)phenyl)-4-(pyridin-3-yl)thiazol-2-amine] was run?
Its EC50 is under 1000 nM.

Which EC50 does the source give for `CCCCCCCCOc1ccc(Nc2ncc(-c3cccnc3)s2)cc1C(F)(F)F` [Cmp 164, N-(4-(octyloxy)-3-(trifluoromethyl)phenyl)-5-(pyridin-3-yl)thiazol-2-amine] here?
Its EC50 is under 1000 nM.

For `CC/C=C\CCCCOc1ccc(Nc2nc(-c3cccnc3)c(F)s2)cc1C(F)(F)F` [Cmp 165, (Z)-5-fluoro-N-(4-(oct-5-enyloxy)-3-(trifluoromethyl)phenyl)-4-(pyridin-3-yl)thiazol-2-amine], which EC50 is on record?
The EC50 was under 1000 nM.

How did the EC50 turn out when `CCCCCCCCOc1ccc(Nc2nc(-c3ccncc3)c(F)s2)cc1C(F)(F)F` [Cmp 166, 5-fluoro-N-(4-(octyloxy)-3-(trifluoromethyl)phenyl)-4-(pyridin-4-yl)thiazol-2-amine] was run?
Its EC50 is under 1000 nM.

How did the EC50 turn out when `CCCCCCCCc1ccc(Nc2nc(-c3ccncc3)c(F)s2)cc1C(F)(F)F` [Cmp 167, 5-fluoro-N-(4-octyl-3-(trifluoromethyl)phenyl)-4-(pyridin-4-yl)thiazol-2-amine] was run?
The EC50 was under 1000 nM.

Which EC50 does the source give for `CCCCCCCCc1ccc(Nc2nc(-c3ccc(F)nc3)cs2)cc1C(F)(F)F` [Cmp 168, 4-(6-fluoropyridin-3-yl)-N-(4-octyl-3-(trifluoromethyl)phenyl)thiazol-2-amine] here?
The EC50 was under 1000 nM.

How did the EC50 turn out when `CCCCCCCCOc1ccc(Nc2nc(-c3cccnc3)c(Cl)s2)cc1C(C)=O` [Cmp 169, 1-(5-(5-chloro-4-(pyridin-3-yl)thiazol-2-ylamino)-2-(octyloxy)phenyl)ethanone] was run?
Its EC50 is under 1000 nM.

How did the EC50 turn out when `CCCCCCCCc1ccc(Nc2nc(-c3cnccn3)c(Cl)s2)cc1C(F)(F)F` [Cmp 170, 5-chloro-N-(4-octyl-3-(trifluoromethyl)phenyl)-4-(pyrazin-2-yl)thiazol-2-amine] was run?
Its EC50 is under 1000 nM.

`FC(F)(F)c1cc(Nc2nc(-c3cccnc3)cs2)ccc1OC1Cc2ccccc2C1` [Cmp 171, N-(4-(2,3-dihydro-1H-inden-2-yloxy)-3-(trifluoromethyl)phenyl)-4-(pyridin-3-yl)thiazol-2-amine] was tested. Which EC50 did it give?
The EC50 was under 1000 nM.

Which EC50 does the source give for `CCCC/C=C\CCOc1ccc(Nc2nc(-c3cccnc3)c(F)s2)cc1C(F)(F)F` [Cmp 172, (Z)-5-fluoro-N-(4-(oct-3-enyloxy)-3-(trifluoromethyl)phenyl)-4-(pyridin-3-yl)thiazol-2-amine] here?
The EC50 was under 1000 nM.

Which EC50 does the source give for `Fc1ccc(-c2nc(Nc3ccc(OCCCC4CCCC4)c(C(F)(F)F)c3)sc2F)cn1` [Cmp 173, N-(4-(3-cyclopentylpropoxy)-3-(trifluoromethyl)phenyl)-5-fluoro-4-(6-fluoropyridin-3-yl)thiazol-2-amine] here?
Its EC50 is under 1000 nM.

Which EC50 does the source give for `CCCCCCCCc1ccc(Nc2nc(-c3ccc(F)nc3)c(F)s2)cc1C(F)(F)F` [Cmp 174, 5-fluoro-4-(6-fluoropyridin-3-yl)-N-(4-octyl-3-(trifluoromethyl)phenyl)thiazol-2-amine] here?
Its EC50 is under 1000 nM.

`CCCCCCCCOc1ccc(Nc2nc(-c3ccc(F)nc3)c(F)s2)cc1C(F)(F)F` [Cmp 175, 5-fluoro-4-(6-fluoropyridin-3-yl)-N-(4-(octyloxy)-3-(trifluoromethyl)phenyl)thiazol-2-amine] was tested. Which EC50 did it give?
Its EC50 is under 1000 nM.

`Fc1sc(Nc2ccc(OC3Cc4ccccc4C3)c(C(F)(F)F)c2)nc1-c1cccnc1` [Cmp 176, N-(4-(2,3-dihydro-1H-inden-2-yloxy)-3-(trifluoromethyl)phenyl)-5-fluoro-4-(pyridin-3-yl)thiazol-2-amine] was tested. Which EC50 did it give?
Its EC50 is under 1000 nM.

How did the EC50 turn out when `CCCCCCCCOc1ccc(Nc2nc(-c3ccc4nncn4c3)cs2)cc1C(F)(F)F` [Cmp 177, 4-([1,2,4]triazolo[4,3-a]pyridin-6-yl)-N-(4-(octyloxy)-3-(trifluoromethyl)phenyl)thiazol-2-amine] was run?
The EC50 was under 1000 nM.

Which EC50 does the source give for `CCCCCCCCc1ccc(Nc2nc(-c3ccc4nncn4c3)cs2)cc1C(F)(F)F` [Cmp 178, 4-([1,2,4]triazolo[4,3-a]pyridin-6-yl)-N-(4-octyl-3-(trifluoromethyl)phenyl)thiazol-2-amine] here?
The EC50 was under 1000 nM.

`CCCCCCCCc1cc2cc(Nc3nc(-c4ccc5nncn5c4)cs3)ccc2o1` [Cmp 179, 4-([1,2,4]triazolo[4,3-a]pyridin-6-yl)-N-(2-octylbenzofuran-5-yl)thiazol-2-amine] was tested. Which EC50 did it give?
The EC50 was under 1000 nM.

With `CCCCCCCCc1ccc(Nc2nc(-c3cncc(C#N)c3)cs2)cc1C(F)(F)F` [Cmp 180, 5-(2-(4-octyl-3-(trifluoromethyl)phenylamino)thiazol-4-yl)nicotinonitrile] as the molecule, how does the EC50 read?
Its EC50 is under 1000 nM.
